1 compound from PMC8165744, “Identification of an Alternative Glycyrrhizin Metabolite Causing Liquorice-Induced Pseudohyperaldosteronism and the Development of ELISA System to Detect the Predictive Biomarker” (Frontiers in Pharmacology, 2021) can be followed below.

In test [1] the target is T1, rat type-2 11β-hydroxysteroid dehydrogenase (11β-HSD2) (Rattus norvegicus, UniProt P50233).
T1 construct: from tissue; host or cells: rat kidney microsome fraction
T1 sequence (P50233 1-400): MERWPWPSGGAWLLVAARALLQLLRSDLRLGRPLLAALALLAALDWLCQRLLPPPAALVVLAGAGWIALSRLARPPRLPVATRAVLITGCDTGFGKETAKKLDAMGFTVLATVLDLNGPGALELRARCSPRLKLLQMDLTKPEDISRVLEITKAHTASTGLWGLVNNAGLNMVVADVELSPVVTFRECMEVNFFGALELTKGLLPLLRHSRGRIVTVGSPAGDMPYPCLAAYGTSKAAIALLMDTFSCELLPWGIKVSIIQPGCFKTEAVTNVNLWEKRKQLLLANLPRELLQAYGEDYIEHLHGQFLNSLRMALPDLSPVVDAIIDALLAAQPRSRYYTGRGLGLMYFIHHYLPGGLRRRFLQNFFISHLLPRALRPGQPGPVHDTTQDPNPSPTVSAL
Description: in vitro 11β-HSD2 activity using rat kidney microsomes. Conditions: rat kidney microsome fraction, 37°C, 30 min. The format is biochemical. Here is the method: Determination of in vitro 11β-HSD2 Activity Using Rat Kidney Microsomes
Then, the amount of [^3H] cortisol was measured. […] Kidneys were collected from normal Sprague-Dawley (SD) rats and slices were incubated with plasma samples of female EHBRs at 37°C or 4°C for 2 h, and then homogenized. […] HEK293 cells transfected with OAT1 or OAT3 were incubated with 1:2 diluted plasma samples of male EHBRs at 37°C for 15 min. Then, concentrations of 4 in cells were measured using LC-MS/MS.

The subject of another test is anti-3MGA-mAb. Nature of the test: competitive ELISA using anti-3MGA-mAb. In kind it is binding. The following applies: competitive ELISA in aqueous solution, 3MGA calibrated to 100%. Here is the method:
ELISA System Using anti-3MGA-mAb
An ELISA system to measure the cross-reactivity of compounds 3 and 4 by using 3MGA-HSA-conjugate and anti-3MGA-mAb was used according to the protocol in our previous study ([Ishiuchi et al., 2019]). To measure the concentration of 3 in human serum samples using the system ELISA, 3 was dissolved in normal human serum (Sigma) to prepare standard solutions (16 nM–2.0 µM) and the samples or standard solutions (each 10 µl) and ethanol (40 µl) were well mixed and centrifuged (1.2 × 10^4 × g for 7 min). The supernatant was dried up under nitrogen flow at 40°C overnight, and the residue was dissolved in Can Get Signal® Solution 1 (Toyobo Co., Ltd: Osaka, Japan) (50 µl). […] When the observed values were more than 400 nM, the deproteinized serum samples were further diluted with Can Get Signal® Solution 1 for two or four times and analyzed again to observe values from 15.6 to 400 nM.
FIGURE 4 Development of enzyme-linked immunosorbent assay (ELISA) system to measure concentrations of 3 in human serum samples using anti-18β-glycyrrhetyl-3-O-glucuronide (3MGA)-monoclonal antibody (mAb). […] Standard lines between absorbance and concentrations of compound 3 are shown (D) Accuracy of ELISA system in measuring concentrations of 3 in human serum samples using anti-3MGA-mAb. Human serum samples were deproteinized, and concentration of 3 was measured using ELISA system. […]
A general note: An ELISA detects its analyte on a solid surface through an enzyme-linked reagent.

The structures appear in SMILES notation. pIC50: −log10 of the molar value.

In general, pIC50 refers to the IC50 on a negative log10 scale, so that one unit is a factor of ten. High values mean a small IC50, low ones a large IC50.

On to `CC1(C)[C@@H](OS(=O)(=O)O)CC[C@]2(C)[C@H]3C(=O)C=C4[C@@H]5C[C@@](C)(C(=O)O[C@@H]6O[C@H](C(=O)O)[C@@H](O)[C@H](O)[C@H]6O)CC[C@]5(C)CC[C@@]4(C)[C@]3(C)CC[C@@H]12` [Compound 4, 18β-glycyrrhetyl-3-O-sulfate-30-O-glucuronide], for which the pIC50 in test [1] was 6.42. For the same compound, the “cross-reactivity to anti-3MGA-mAb” value with anti-3MGA-mAb is reported as 40%.
